Measured values as given in ChEMBL document CHEMBL1141986, “Molecular docking of the highly hypolipidemic agent alpha-asarone with the catalytic portion of HMG-CoA reductase” (Bioorg Med Chem Lett, 2005).

How the values were obtained:
[1] = molecular target: T1, 3-hydroxy-3-methylglutaryl-coenzyme A reductase (Homo sapiens, UniProt P04035); assay: Inhibitory constant against HMG-CoA reductase
T1 sequence (P04035 whole entry): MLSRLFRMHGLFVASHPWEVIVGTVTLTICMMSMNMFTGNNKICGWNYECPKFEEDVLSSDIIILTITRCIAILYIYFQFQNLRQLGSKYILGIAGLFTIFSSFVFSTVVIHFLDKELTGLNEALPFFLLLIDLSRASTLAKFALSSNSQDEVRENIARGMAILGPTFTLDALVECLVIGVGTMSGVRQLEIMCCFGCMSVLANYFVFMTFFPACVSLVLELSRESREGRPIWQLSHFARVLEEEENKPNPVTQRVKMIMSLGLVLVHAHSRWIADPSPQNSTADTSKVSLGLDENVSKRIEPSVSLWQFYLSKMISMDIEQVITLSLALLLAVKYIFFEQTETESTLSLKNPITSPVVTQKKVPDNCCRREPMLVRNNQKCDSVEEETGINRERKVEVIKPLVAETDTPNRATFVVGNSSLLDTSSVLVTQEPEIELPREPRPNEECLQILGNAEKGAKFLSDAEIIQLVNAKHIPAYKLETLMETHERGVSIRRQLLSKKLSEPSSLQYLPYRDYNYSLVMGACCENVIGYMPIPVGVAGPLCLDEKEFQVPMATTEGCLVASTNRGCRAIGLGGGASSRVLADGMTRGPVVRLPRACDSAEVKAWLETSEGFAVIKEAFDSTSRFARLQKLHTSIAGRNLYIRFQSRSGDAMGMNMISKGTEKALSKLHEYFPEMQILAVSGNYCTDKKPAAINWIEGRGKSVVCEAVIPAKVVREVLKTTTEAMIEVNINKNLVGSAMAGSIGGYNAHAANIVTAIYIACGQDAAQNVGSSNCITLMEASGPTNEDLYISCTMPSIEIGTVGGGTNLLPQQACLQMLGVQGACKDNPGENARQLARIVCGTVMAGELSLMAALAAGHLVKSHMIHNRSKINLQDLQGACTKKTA

[2] = molecular target: T1, 3-hydroxy-3-methylglutaryl-coenzyme A reductase; assay: Inhibitory concentration against HMG-CoA reductase
[3] = molecular target: T1, 3-hydroxy-3-methylglutaryl-coenzyme A reductase; assay: Inhibitory constant against HMG-CoA reductase with alpha asarone

## CC(O)(CC(=O)O)CC(=O)O [MEGLUTOL]
[1]
  Ki: 23.5 nM
[2]
  IC50: 4000 nM

## CC(C)c1nc(N(C)S(C)(=O)=O)nc(-c2ccc(F)cc2)c1/C=C/[C@@H](O)C[C@@H](O)CC(=O)O [ROSUVASTATIN]
[3]
  Ki: 71000 nM
[1]
  Ki: 0.9 nM
[2]
  IC50: 5.4 nM
